Where a SMILES comes first, the peptide text is derived from it. Bridges are numbered along the chain shown (N, C = ends). Roman numbers before positions name the chains, in order. [ ]: non-standard residue; d: D form. Tle = CC(C)(C)[C@H](N)C(=O)O; dDab = NCC[C@@H](N)C(=O)O; Nle = CCCC[C@H](N)C(=O)O; Orn = NCCC[C@H](N)C(=O)O; Dab = NCC[C@H](N)C(=O)O
Tests used:
Assay type in all cases: cell-based
[1] = test system: human red blood cells (hRBC); experiment: Hemolysis of human red blood cells; details: red cells of human, 1 h
How it was run: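 Each peptide was tested at a single concentration, 100 μg/mL. Erythrocytes (20% v/v) were incubated 1 h at 37° C. under shaking at 300 rpm, centrifuged, and released hemoglobin measured at OD540. Controls were PBS containing 0.001% acetic acid (0%) and Triton X-100 (100%).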

[2] = test system: Escherichia coli ATCC 25922; details: ATCC 25922
How it was run: (§1)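 CLSI broth microdilution; MH-II (cation-adjusted) + 0.002% P-80; ~10^6 CFU/mL inoculum; peptide two-fold serial dilutions; 18-20 h, 35° C; MIC = no visible growth, μg/mL.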

[3] = test system: Klebsiella pneumoniae 968733; details: 968733
[4] = test system: Pseudomonas aeruginosa ATCC 27853; details: ATCC 27853
How it was run: as §1

[5] = test system: Klebsiella pneumoniae SSI #3010; details: SSI #3010
How it was run: as §1

[6] = test system: Acinetobacter baumannii 872842; details: 872842
[7] = test system: Acinetobacter baumannii DSM 30008; details: DSM 30008
How it was run: as §1

Escherichia coli 926415 = details: 926415

Compound	Hemolysis at 100 μg/mL [1]; 100 [%]	Escherichia coli ATCC 25922 MIC [2] [µg/mL]	Klebsiella pneumoniae 968733 MIC [3] [µg/mL]	Pseudomonas aeruginosa ATCC 27853 MIC [4] [µg/mL]	Klebsiella pneumoniae SSI #3010 MIC [5] [µg/mL]	Acinetobacter baumannii 872842 MIC [6] [µg/mL]	Acinetobacter baumannii DSM 30008 MIC [7] [µg/mL]	Escherichia coli 926415 MIC (Escherichia coli 926415) [µg/mL]	Hemolysis at 100 μg/mL ([1]; 100 μg/mL) [%]
CCCC[C@@H]1NC(=O)[C@@H]2CCCN2C(=O)[C@H]2CCCN2C(=O)[C@H](CO)NC(=O)[C@H](C)NC(=O)[C@H](C(C)(C)C)NC(=O)[C@H](CCN)NC(=O)[C@H](Cc2c[nH]c3ccccc23)NC(=O)[C@@H](NC(C)=O)CCC(=O)NCC[C@@H](C(=O)N[C@@H](CCN)C(=O)N[C@H]2CCNC(=O)[C@H]([C@@H](C)O)NC(=O)[C@H](CCN)NC(=O)[C@H](CCN)NC(=O)[C@H](CC(C)C)NC(=O)[C@@H](Cc3ccccc3)NC(=O)[C@H](CCN)NC2=O)NC(=O)[C@H](CCCN)NC(=O)[C@H](CCN)NC(=O)[C@H](Cc2ccc(O)cc2)NC(=O)[C@H](CO)NC1=O [Ex. 58] (Ac-EW[Dab][Tle]AS[dP]P[Nle]SY[Dab][Orn][Dab][Dab][Dab][Dab][dF]L[Dab][Dab]T; lactam 1-14, 16-C)	<1	0.125	2	0.5	0.125	0.5	0.25	0.25	–
CCCC[C@@H]1NC(=O)[C@@H]2CCCN2C(=O)[C@H]2CCCN2C(=O)[C@H](CO)NC(=O)[C@H](C)NC(=O)[C@H](C(C)(C)C)NC(=O)[C@H](CCN)NC(=O)[C@H](Cc2c[nH]c3ccccc23)NC(=O)[C@@H](NC(C)=O)CCNC(=O)CC[C@@H](C(=O)N[C@@H](CCN)C(=O)N[C@H]2CCNC(=O)[C@H]([C@@H](C)O)NC(=O)[C@H](CCN)NC(=O)[C@H](CCN)NC(=O)[C@H](CC(C)C)NC(=O)[C@@H](Cc3ccccc3)NC(=O)[C@H](CCN)NC2=O)NC(=O)[C@H](CCCN)NC(=O)[C@H](CCN)NC(=O)[C@H](Cc2ccc(O)cc2)NC(=O)[C@H](CO)NC1=O [Ex. 59] (Ac-[Dab]W[Dab][Tle]AS[dP]P[Nle]SY[Dab][Orn]E[Dab][Dab][Dab][dF]L[Dab][Dab]T; lactam 1-14, 16-C)	<1	0.25	2	1	0.5	2	0.5	0.5	–
CCCC[C@@H]1NC(=O)[C@@H]2CCCN2C(=O)[C@H]2CCCN2C(=O)[C@H](CO)NC(=O)[C@H](C)NC(=O)[C@H](C(C)(C)C)NC(=O)[C@H](CCN)NC(=O)[C@H](Cc2c[nH]c3ccccc23)NC(=O)[C@@H](NC(C)=O)CSSC[C@@H](C(=O)N[C@H](CCN)C(=O)N[C@H]2CCNC(=O)[C@H]([C@@H](C)O)NC(=O)[C@H](CCN)NC(=O)[C@H](CCN)NC(=O)[C@H](CC(C)C)NC(=O)[C@@H](Cc3ccccc3)NC(=O)[C@H](CCN)NC2=O)NC(=O)[C@H](CCCN)NC(=O)[C@H](CCN)NC(=O)[C@H](Cc2ccc(O)cc2)NC(=O)[C@H](CO)NC1=O [Ex. 60] (Ac-CW[Dab][Tle]AS[dP]P[Nle]SY[Dab][Orn]C[dDab][Dab][Dab][dF]L[Dab][Dab]T; disulfide 1-14; lactam 16-C)	–	0.0625	1	0.5	0.25	1	1	0.25	<1
CCCC[C@@H]1NC(=O)[C@@H]2CCCN2C(=O)[C@H]2CCCN2C(=O)[C@H](CO)NC(=O)[C@H](C)NC(=O)[C@H](C(C)(C)C)NC(=O)[C@H](CCN)NC(=O)[C@H](Cc2c[nH]c3ccccc23)NC(=O)[C@@H](NC(C)=O)CSSC[C@@H](C(=O)N[C@@H](CCN)C(=O)N[C@@H](CCN)C(=O)N[C@H]2CCNC(=O)[C@H]([C@@H](C)O)NC(=O)[C@H](CCN)NC(=O)[C@H](CCN)NC(=O)[C@H](CC(C)C)NC(=O)[C@@H](Cc3ccccc3)NC(=O)[C@H](CCN)NC2=O)NC(=O)[C@H](CCCN)NC(=O)[C@H](CCN)NC(=O)[C@H](Cc2ccc(O)cc2)NC(=O)[C@H](CO)NC1=O [Ex. 61] (Ac-CW[Dab][Tle]AS[dP]P[Nle]SY[Dab][Orn]C[Dab][Dab][Dab][Dab][dF]L[Dab][Dab]T; disulfide 1-14; lactam 17-C)	–	0.5	8	0.25	1	1	1	2	<1
CCCC[C@@H]1NC(=O)[C@@H]2CCCN2C(=O)[C@H]2CCCN2C(=O)[C@H](CO)NC(=O)[C@H](C)NC(=O)[C@H](C(C)(C)C)NC(=O)[C@H](CCN)NC(=O)[C@H](Cc2c[nH]c3ccccc23)NC(=O)[C@@H](NC(C)=O)CSSC[C@@H](C(=O)N[C@@H](CCN)C(=O)N[C@H](C(=O)N[C@@H](CCN)C(=O)N[C@H]2CCNC(=O)[C@H]([C@@H](C)O)NC(=O)[C@H](CCN)NC(=O)[C@H](CCN)NC(=O)[C@H](CC(C)C)NC(=O)[C@@H](Cc3ccccc3)NC(=O)[C@H](CCN)NC2=O)[C@@H](C)O)NC(=O)[C@H](CCCN)NC(=O)[C@H](CCN)NC(=O)[C@H](Cc2ccc(O)cc2)NC(=O)[C@H](CO)NC1=O [Ex. 62] (Ac-CW[Dab][Tle]AS[dP]P[Nle]SY[Dab][Orn]C[Dab]T[Dab][Dab][Dab][dF]L[Dab][Dab]T; disulfide 1-14; lactam 18-C)	–	0.25	8	0.5	0.5	0.5	0.5	1	1
CCCC[C@@H]1NC(=O)[C@@H]2CCCN2C(=O)[C@H]2CCCN2C(=O)[C@H](CO)NC(=O)[C@H](C)NC(=O)[C@H](C(C)(C)C)NC(=O)[C@H](CCN)NC(=O)[C@H](Cc2c[nH]c3ccccc23)NC(=O)[C@H](NC(C)=O)CSSC[C@@H](C(=O)N[C@@H](CCN)C(=O)N[C@H](C(=O)N[C@@H](CCN)C(=O)N[C@H]2CCNC(=O)[C@H]([C@@H](C)O)NC(=O)[C@H](CCN)NC(=O)[C@H](CCN)NC(=O)[C@H](CC(C)C)NC(=O)[C@@H](Cc3ccccc3)NC(=O)[C@H](CCN)NC2=O)[C@@H](C)O)NC(=O)[C@H](CCCN)NC(=O)[C@H](CCN)NC(=O)[C@H](Cc2ccc(O)cc2)NC(=O)[C@H](CO)NC1=O [Ex. 63] (Ac-[dC]W[Dab][Tle]AS[dP]P[Nle]SY[Dab][Orn]C[Dab]T[Dab][Dab][Dab][dF]L[Dab][Dab]T; disulfide 1-14; lactam 18-C)	–	0.5	8	0.5	2	2	2	3	<1
CCCC[C@@H]1NC(=O)[C@@H]2CCCN2C(=O)[C@H]2CCCN2C(=O)[C@H](CO)NC(=O)[C@H](C)NC(=O)[C@H](C(C)(C)C)NC(=O)[C@H](CCN)NC(=O)[C@H](Cc2c[nH]c3ccccc23)NC(=O)[C@H](CCN)NC(=O)[C@@H](CCN)NC(=O)[C@H](CCC(=O)N[C@H](CCN)C(=O)N[C@H]2CCNC(=O)[C@H]([C@@H](C)O)NC(=O)[C@H](CCN)NC(=O)[C@H](CCN)NC(=O)[C@H](CC(C)C)NC(=O)[C@@H](Cc3ccccc3)NC(=O)[C@H](CCN)NC2=O)NC(=O)[C@H](CCN)NC(=O)[C@H](Cc2ccc(O)cc2)NC(=O)[C@H](CO)NC1=O [Ex. 65] (I: cyclo([Nle]SY[Dab]E[dDab][Dab]W[Dab][Tle]AS[dP]P) / II: [dDab][Dab][Dab][dF]L[Dab][Dab]T; amide I:5-II:N; lactam II:2-II:C)	<1	1	2	1	1	4	2	1	–

— patent US10829520B2, “Beta-hairpin peptidomimetics” (POLYPHOR AG, priority 2015, dated 2020)
